Data set [1] is described as follows: Apparent permeability across Caco-2 cells. In kind it is ADME, cell-based. As to conditions: human.
Another data set relates to Intestine. Put plainly: Apparent permeability across rat small intestine. In kind it is ADME, tissue-based.
Data set [2] can be described thus: Metabolic stability in rat brush border vesicles. Format: ADME.
Data set [3] is described as follows: Permeability in biomimetic membrane layer DMPC vesicles assessed as decrease in fluorescence at 30 uM by colorimetric mixed-vesicle assay. Format: ADME, cell membranes.
Data set [4] is described as follows: Apparent permeability across Caco-2 cells via paracellular pathway. Format: ADME, cell-based. To be noted: human. For orientation: Caco-2 cells form a polarised layer with tight junctions and transporters.
A short description of data set [5]: Lipophilicity, log D in octanol at pH 7.4. Format: physicochemical.
The nature of data set [6]: Permeability across artificial membrane by PAMPA model. As to conditions: read-out: permeability. In kind it is ADME. On the technique in general: PAMPA measures passive passage across an artificial lipid membrane.

*1 amine or outer side, *2 acyl side, *3 side chain or, on linkers, in order; H or OH if unused. Where a SMILES comes first, the peptide text is derived from it. Bridges are numbered along the chain shown (N, C = ends). [ ]: non-standard residue; d: D form. Phe(Nα-(CH2)3CO) = O=C([C@H](Cc1ccccc1)N(CCCC(=O)[*:3])[*:1])[*:2]; Phe(Nα-CH2CH2CO) = O=C([C@H](Cc1ccccc1)N(CCC(=O)[*:3])[*:1])[*:2]; N(2-aminoethyl)Phe = O=C([C@H](Cc1ccccc1)N(CCN[*:3])[*:1])[*:2]; NMeF = CN[C@@H](Cc1ccccc1)C(=O)O; Sar = CNCC(=O)O

Turning to `NC(=O)[C@H](Cc1ccccc1)N1CCNC(=O)CCCCN[C@@H](Cc2ccccc2)C(=O)NCC(=O)NCC(=O)NCC(=O)NCC1=O`, the values for the Papp (in data set [1]; in the data set with Intestine) were 1.5 ×10⁻⁶ cm/s and 5.02 ×10⁻⁶ cm/s, respectively. The Stability result in data set [2] is reported as “Stable”.
Regarding `CN[C@@H](Cc1ccccc1)C(=O)N[C@@H](C)C(=O)N[C@@H](C)C(=O)NCC(=O)NCC(=O)N(C)[C@@H](Cc1ccccc1)C(N)=O` (H-[NMeF]AAGG[NMeF]-NH2), the Papp amounted to 0.87 ×10⁻⁶ cm/s in data set [1] and 0.99 ×10⁻⁶ cm/s in the data set on Intestine.
With `CN[C@@H](Cc1ccccc1)C(=O)NCC(=O)NCC(=O)NCC(=O)NCC(=O)N(C)[C@@H](Cc1ccccc1)C(N)=O` (H-[NMeF]GGGG[NMeF]-NH2), the permeability in data set [3] is recorded as 40%. Further, the Papp in data set [1] is 1.82 ×10⁻⁶ cm/s; in the data set on Intestine it was 0.73 ×10⁻⁶ cm/s.
As to `CN[C@@H](Cc1ccccc1)C(=O)N(C)CC(=O)NCC(=O)NCC(=O)NCC(=O)N(C)[C@@H](Cc1ccccc1)C(N)=O` (H-[NMeF][Sar]GGG[NMeF]-NH2), the permeability in data set [3] was 35%. In addition, the figures for the Papp (in data set [1]; in data set [4]; with Intestine) were 0.58 ×10⁻⁶ cm/s, 1.74 ×10⁻⁶ cm/s and 0.75 ×10⁻⁶ cm/s, respectively.
For `CN[C@@H](Cc1ccccc1)C(=O)N(C)CC(=O)N(C)CC(=O)NCC(=O)NCC(=O)N(C)[C@@H](Cc1ccccc1)C(N)=O` (H-[NMeF][Sar][Sar]GG[NMeF]-NH2), the Papp in data set [1] was determined as 0.46 ×10⁻⁶ cm/s; with Intestine, 1 ×10⁻⁶ cm/s.
Take `NC(=O)[C@H](Cc1ccccc1)N1CCNC(=O)CCCN[C@@H](Cc2ccccc2)C(=O)NCC(=O)NCC(=O)NCC(=O)NCC1=O` (H-[Phe(Nα-(CH2)3CO)]GGGG[N(2-aminoethyl)Phe]-NH2; lactam 1-6): the results for the Papp (in data set [1]; in the data set on Intestine) were 2.73 ×10⁻⁶ cm/s and 4.2 ×10⁻⁶ cm/s, respectively. The Stability entry in data set [2] is reported as “Stable”.
Consider `C[C@H](NC(=O)[C@H](C)NC(=O)[C@H](Cc1ccccc1)NCCC(=O)O)C(=O)N[C@@H](C)C(=O)N[C@@H](C)C(=O)N(CCN)[C@@H](Cc1ccccc1)C(N)=O` (H-[Phe(Nα-CH2CH2CO)]AAAA[N(2-aminoethyl)Phe]-NH2), for which the values for the Papp (in data set [1]; in the data set with Intestine) were 0.2 ×10⁻⁶ cm/s and 0.67 ×10⁻⁶ cm/s, respectively.
`C[C@@H]1NC(=O)[C@H](C)NC(=O)[C@H](Cc2ccccc2)NCCC(=O)NCCN([C@@H](Cc2ccccc2)C(N)=O)C(=O)[C@H](C)NC(=O)[C@H](C)NC1=O` (H-[Phe(Nα-CH2CH2CO)]AAAA[N(2-aminoethyl)Phe]-NH2; lactam 1-6): the Papp is 1.47 ×10⁻⁶ cm/s in data set [1] and 5.63 ×10⁻⁶ cm/s with Intestine. For the same compound, the logD – broadly, the decadic logarithm of the distribution of all forms, ionised or not, between an organic phase and buffer at a given pH – in data set [5] worked out at 0.49. In data set [2], the Stability result is “Stable”.
With `C[C@@H]1NC(=O)[C@H](C)NC(=O)[C@H](C)NC(=O)[C@H](Cc2ccccc2)NCCC(=O)NCCN([C@@H](Cc2ccccc2)C(N)=O)C(=O)CNC1=O` (H-[Phe(Nα-CH2CH2CO)]AAAG[N(2-aminoethyl)Phe]-NH2; lactam 1-6), the Papp in data set [1] was determined as 3.47 ×10⁻⁶ cm/s; in the data set on Intestine, 6.16 ×10⁻⁶ cm/s. For the same compound, the Stability result in data set [2] was “Stable”.
As to `C[C@@H]1NC(=O)[C@H](C)NC(=O)[C@H](Cc2ccccc2)NCCC(=O)NCCN([C@@H](Cc2ccccc2)C(N)=O)C(=O)CNC(=O)CNC1=O` (H-[Phe(Nα-CH2CH2CO)]AAGG[N(2-aminoethyl)Phe]-NH2; lactam 1-6), the Papp in data set [1] came out at 3.22 ×10⁻⁶ cm/s; in the data set with Intestine, 5.26 ×10⁻⁶ cm/s. Further, the Stability entry in data set [2] is listed as “Stable”.
Turning to `C[C@@H]1NC(=O)[C@H](Cc2ccccc2)NCCC(=O)NCCN([C@@H](Cc2ccccc2)C(N)=O)C(=O)CNC(=O)CNC(=O)CNC1=O` (H-[Phe(Nα-CH2CH2CO)]AGGG[N(2-aminoethyl)Phe]-NH2; lactam 1-6), the results for the Papp (in data set [1]; with Intestine) were 1.9 ×10⁻⁶ cm/s and 3.89 ×10⁻⁶ cm/s, respectively. The Stability entry in data set [2] is given as “Stable”.
On to `NC(=O)[C@H](Cc1ccccc1)N1CCNC(=O)CCN[C@@H](Cc2ccccc2)C(=O)NCC(=O)NCC(=O)NCC(=O)NCC1=O` (H-[Phe(Nα-CH2CH2CO)]GGGG[N(2-aminoethyl)Phe]-NH2; lactam 1-6), for which the permeability in data set [3] is 40%. The Papp in data set [1] stood at 5.43 ×10⁻⁶ cm/s. In addition, the logD in data set [5] was -0.41. For the same compound, in data set [2], the Stability entry is recorded as “Stable”.
With `CN1CC(=O)NCC(=O)NCC(=O)NCC(=O)N([C@@H](Cc2ccccc2)C(N)=O)CCNC(=O)CCN[C@@H](Cc2ccccc2)C1=O` (H-[Phe(Nα-CH2CH2CO)][Sar]GGG[N(2-aminoethyl)Phe]-NH2; lactam 1-6), the permeability in data set [3] was found to be 35%. For the same compound, the Papp was 2.22 ×10⁻⁶ cm/s in data set [1], 7.58 ×10⁻⁶ cm/s in data set [4] and 4.58 ×10⁻⁶ cm/s in the data set with Intestine. In data set [5], this compound returned a logD of -0.57. Moreover, in data set [2], the Stability result was “Stable”.
Turning to `CN1CC(=O)NCC(=O)NCC(=O)N([C@@H](Cc2ccccc2)C(N)=O)CCNC(=O)CCN[C@@H](Cc2ccccc2)C(=O)N(C)CC1=O` (H-[Phe(Nα-CH2CH2CO)][Sar][Sar]GG[N(2-aminoethyl)Phe]-NH2; lactam 1-6), the Papp in data set [1] stood at 2.45 ×10⁻⁶ cm/s; in the data set on Intestine it was 3.94 ×10⁻⁶ cm/s. Besides, the Stability result in data set [2] was “Stable”.
The matching figures for `CN1CC(=O)NCC(=O)N([C@@H](Cc2ccccc2)C(N)=O)CCNC(=O)CCN[C@@H](Cc2ccccc2)C(=O)N(C)CC(=O)N(C)CC1=O` (H-[Phe(Nα-CH2CH2CO)][Sar][Sar][Sar]G[N(2-aminoethyl)Phe]-NH2; lactam 1-6): 2.95 ×10⁻⁶ cm/s, 5.63 ×10⁻⁶ cm/s and “Stable”.
The matching figures for `CN1CC(=O)N(C)CC(=O)N([C@@H](Cc2ccccc2)C(N)=O)CCNC(=O)CCN[C@@H](Cc2ccccc2)C(=O)N(C)CC(=O)N(C)CC1=O` (H-[Phe(Nα-CH2CH2CO)][Sar][Sar][Sar][Sar][N(2-aminoethyl)Phe]-NH2; lactam 1-6): 1.56 ×10⁻⁶ cm/s, 4.87 ×10⁻⁶ cm/s and “Stable”.
Consider `Nc1nc2c(ncn2COCCO)c(=O)[nH]1` [ACYCLOVIR], for which the Papp in data set [6] worked out at 0.01 ×10⁻⁶ cm/s.
On the same count and under the same terms, the result for `Cc1cc(=O)n(-c2ccccc2)n1C` [ANTIPYRINE] reads 1.18 ×10⁻⁶ cm/s.
Regarding `OC[C@@H](O)[C@@H](O)[C@H](O)[C@H](O)CO` [MANNITOL], the results for the Papp (in data set [1]; with Intestine) were 2.2 ×10⁻⁶ cm/s and 5 ×10⁻⁶ cm/s, respectively.
Turning to `C[C@]12CC[C@H]3[C@@H](CCC4=CC(=O)CC[C@@]43C)[C@@H]1CC[C@@H]2O` [TESTOSTERONE], the Papp in data set [6] worked out at 8.67 ×10⁻⁶ cm/s.

The record behind these values is ChEMBL document CHEMBL1138310, “Effect of structural and conformation modifications, including backbone cyclization, of hydrophilic hexapeptides on their intestinal permeability and enzymatic stability” (J Med Chem, 2007).
